Consider two molecules from patent US20210260213A1, “METHODS AND COMPOSITIONS FOR DELIVERY OF A THERAPEUTIC AGENT” (priority 2018, published 2021).

The conditions of test [1]: published studies; cited from earlier work.
For another test, the system named is Pseudomonas aeruginosa. The test can be described thus: Filter disc zone of inhibition on Mueller Hinton plates. The test is classed as cell-based. Conditions: control study. Here is the method:
(§1) Antimicrobial activity of the released drug was tested on Pseudomonas aeruginosa and MRSA cultures and compared to standard concentrations of antibiotic using filter disks on Mueller Hinton plates. The released antibiotics or controls were added onto sterile filter discs (created using a standard hole punch on filter paper, autoclaved). One colony of each bacteria was selected and (pseudomonas or MRSA) placed into a bacteria culture tube and were incubated in 5 mL of LB broth and placed on 37° C. shaker for approximately 4-6 hours.
(§2) 500 μL of the incubated bacteria was then added to the Mueller-Hinton Plates (which have been acclimated to room temperature for at least 2 hours) and a plastic disposable spreader was used to carefully spread the bacteria broth onto the plates and allowed to settle for approximately 5-10 minutes. The filter discs were then placed on top of the bacterial plate and the plates inverted and placed in the 37° C. incubator overnight. After 24 hours, the plates were removed and the zones of inhibition measured and photographed. Parafilm was used to wrap around each plate to keep the plates at room temperature.

The subject of a further test is MRSA. The description is as above. Type of test: cell-based. Here is the method:
as §1, §2

Converted amounts (≈) assume the structure as drawn.

On to `O=C(O)c1cn(C2CC2)c2cc(N3CCNCC3)c(F)cc2c1=O` [Ciprofloxacin], for which the minimum inhibitory concentration in test [1] is 0.5 µg/mL (≈ 1.51 µM). The “amount sufficient to inhibit growth” value in the test on Pseudomonas aeruginosa turned out to be 5 µg.

With `CN[C@H](CC(C)C)C(=O)N[C@H]1C(=O)N[C@@H](CC(N)=O)C(=O)N[C@H]2C(=O)N[C@H]3C(=O)N[C@H](C(=O)N[C@H](C(=O)O)c4cc(O)cc(O)c4-c4cc3ccc4O)[C@H](O)c3ccc(c(Cl)c3)Oc3cc2cc(c3O[C@@H]2O[C@H](CO)[C@@H](O)[C@H](O)[C@H]2O[C@H]2C[C@](C)(N)[C@H](O)[C@H](C)O2)Oc2ccc(cc2Cl)[C@H]1O` [Vancomycin], in test [1], the minimum inhibitory concentration is 2 µg/mL (≈ 1.38 µM). Besides, the zone of inhibition at 10 µg/disc with MRSA (Staphylococcus aureus, MRSA, control, 10 μg on a filter disc) worked out at 8 mm. Also, in the test with MRSA (control study, filter disc), the “amount sufficient to inhibit growth” value was 10 µg. For the same molecule, the zone of inhibition entry in the test with MRSA (drug released from the HA polymer, every collection between 1 hour and 7 days) is recorded as “up to 15 mm”.
